Counter-ions that a name gives are not always drawn.
Test system: K562 cell line
Assay: MTT assay: cytotoxicity against the K562 cell line
Type: cell-based
Conditions: Homo sapiens, K562 cells, 72 h, growth inhibition
Procedure: Assessment of Cell Viability via MTT Assay: Cytotoxicity of compounds against the K562 cell line was assessed using the [3-(4,5-dimethylthiazol-2-yl)-2,5-diphenyl tetrazolium bromide] (MTT) assay. Fifteen thousand tumor cells were seeded into wells of flat-bottomed 96-well plates. An amount of 2 μL of a dilution series of each compound dissolved in DMSO was added to 198 μL of appropriate growth medium at three replicates per concentration and the plates were incubated in a 5% CO2 incubator at 37° C. After 72 h, the number of metabolically active cells was determined by MTT assay. Absorbance of each well was measured at 550 nm on a Tecan Sunrise reader. Dose-response curves for growth inhibition were generated as a percentage of untreated control. IC50 was determined by nonlinear regression (Prism, Graph Pad Software, Inc.).

| SMILES | IC50 [nM] |
| --- | --- |
| CCOc1ccc2c(Cc3cc(OC)c(OC)c(OC)c3)cncc2c1Cl [Compound 106, 8-Chloro-7-ethoxy-4-(3,4,5-trimethoxybenzyl)isoquinoline hydrochloride] | 885 |
| CCOc1ccc2c(C(=O)c3cc(Br)c(OC)c(OC)c3)cncc2c1O [Compound 116, (3-Bromo-4,5-dimethoxyphenyl)(7-ethoxy-8-hydroxyisoquinolin-4-yl)methanone hydrochloride] | 86.9 |
| CCOc1ccc2c(C(=O)c3cc(Br)c(OC)c(OC)c3)cncc2c1OC(C)=O [Compound 115, 4-(3-Bromo-4,5-dimethoxybenzoyl)-7-ethoxyisoquinolin-8-yl acetate] | 20.8 |
| CCOc1ccc2c(Cc3cc(OC)c(NCc4ccccc4)c(OC)c3)cncc2c1O [Compound 51, 4-(4-(Benzylamino)-3,5-dimethoxybenzyl)-7-ethoxyisoquinolin-8-ol hydrochloride] | 741 |
| CCOc1ccc2c(Cc3cc(OC)c(OCC)c([N+](=O)[O-])c3)cncc2c1O [Compound 74, 7-ethoxy-4-(4-ethoxy-3-methoxy-5-nitrobenzyl)isoquinolin-8-ol hydrochloride] | 238 |
| CCCOc1c(OC)cc(Cc2cncc3c(OC(=S)N(C)C)c(OCC)ccc23)cc1OC [Compound 68, O-(4-(3,5-Dimethoxy-4-propoxybenzyl)-7-ethoxyisoquinolin-8-yl) dimethylcarbamothioate hydrochloride] | 152 |
| CCOc1ccc2c(Cc3cc(OC)c(OCC#N)c(OC)c3)cncc2c1O [Compound 50, 2-(4-((7-Ethoxy-8-hydroxyisoquinolin-4-yl)methyl)-2,6-dimethoxyphenoxy)acetonitrile hydrochloride] | 69.8 |
| CCOc1ccc2c(C(=S)c3cc(OC)c(OC)c(OC)c3)cncc2c1 [Compound 42, (7-Ethoxyisoquinolin-4-yl)(3,4,5-trimethoxyphenyl)methanethione hydrochloride] | 60.7 |
| CCOc1ccc2c(Cc3cc(OC)c(CC)c(OC)c3)cncc2c1O [Compound 73, 7-Ethoxy-4-(4-ethyl-3,5-dimethoxybenzyl)isoquinolin-8-ol hydrochloride] | 335 |
| CCOc1ccc2c(Cc3cc(OC)c(OC)c(OC)c3)cncc2c1NS(=O)(=O)NC(=O)OC(C)(C)C [Compound 7, tert-butyl N-(7-ethoxy-4-(3,4,5-trimethoxybenzyl)isoquinolin-8-yl)sulfamoylcarbamate] | 147 |
| CCOc1ccc2c(C(=O)c3cc(OC)c(OCC)c(OC)c3)cncc2c1OCc1ccccc1 [Compound 55, (8-(Benzyloxy)-7-ethoxyisoquinolin-4-yl)(4-ethoxy-3,5-dimethoxyphenyl)methanone] | 422 |
| CCOc1ccc2c(Cc3cc(OC)c(OC)c([N+](=O)[O-])c3)cncc2c1O [Compound 103, 4-(3,4-Dimethoxy-5-nitrobenzyl)-7-ethoxyisoquinolin-8-ol hydrochloride] | 138 |
| CCOc1ccc2c(Cc3cc(Cl)c(OC)c(Cl)c3)cncc2c1O [Compound 69, 4-(3,5-Dichloro-4-methoxybenzyl)-7-ethoxyisoquinolin-8-ol hydrochloride] | 238 |
| CCOc1ccc2c(Cc3cc(OC)c(OCC(C)(C)C)c(OC)c3)cncc2c1O [Compound 39, 4-(3,5-Dimethoxy-4-(neopentyloxy)benzyl)-7-ethoxyisoquinolin-8-ol hydrochloride] | 400 |
| C=C(c1cc(OC)c(OC)c(OC)c1)c1cncc2c(O)c(OCC)ccc12 [Compound 95, 7-Ethoxy-4-(1-(3,4,5-trimethoxyphenyl)vinyl)isoquinolin-8-ol hydrochloride] | 49.7 |
| CCOc1ccc2c(Cc3cc(OC)c(OC)c(OC)c3)cncc2c1 [Compound 16, 4-(3,4,5-Trimethoxybenzyl)-7-ethoxyisoquinoline hydrochloride] | 435 |
| O=C(Nc1ccncc1)C(=O)c1cn(Cc2ccc(Cl)cc2)c2ccccc12 [Indibulin, reference compound] | 197 |
| CCOc1ccc2c(C(=O)c3cc(OC)c(OC)c(OC)c3)cncc2c1NC(C)=O [Compound 111, N-(7-Ethoxy-4-(3,4,5-trimethoxybenzoyl)isoquinolin-8-yl)acetamide hydrochloride] | 96.8 |
| CCOc1ccc2c(Cc3cc(OC)c(OC)c(OCC(F)(F)F)c3)cncc2c1O [Compound 87, 4-(3,4-Dimethoxy-5-(2,2,2-trifluoroethoxy)benzyl)-7-ethoxyisoquinolin-8-ol hydrochloride] | 254 |
| CCOc1ccc2c(Cc3cc(OC)c(OC)c(OC)c3)cncc2c1NCC(=O)OC [Compound 93, Methyl 2-(7-ethoxy-4-(3,4,5-trimethoxybenzyl)isoquinolin-8-ylamino)acetate dihydrochloride] | 334 |
| CCOc1ccc2c(Cc3cc(OC)c(Nc4ccccc4)c(OC)c3)cncc2c1O [Compound 52, 4-(3,5-Dimethoxy-4-(phenylamino)benzyl)-7-ethoxyisoquinolin-8-ol hydrochloride] | 118 |

| SMILES | IC50 [nM] |
| --- | --- |
| CCOc1ccc2c(Cc3cc(OC)c(N4CCCC4)c(OC)c3)cncc2c1O [Compound 76, 4-(3,5-Dimethoxy-4-(pyrrolidin-1-yl)benzyl)-7-ethoxyisoquinolin-8-ol hydrochloride] | 312 |
| CCOc1ccc2c(Cc3cc(Br)c(OC)c(OC)c3)cncc2c1O [Compound 71, 4-(3-Bromo-4,5-dimethoxybenzyl)-7-ethoxyisoquinolin-8-ol hydrochloride] | 26 |
| CCCCCOc1c(OC)cc(Cc2cncc3c(O)c(OCC)ccc23)cc1OC [Compound 63, 4-(3,5-Dimethoxy-4-(pentyloxy)benzyl)-7-ethoxyisoquinolin-8-ol hydrochloride] | 213 |
| CCOc1ccc2c(Cc3cc(OC)c(OCCOC)c(OC)c3)cncc2c1O [Compound 22, 4-(4-(2-Methoxyethoxy)-3,5-dimethoxybenzyl)-7-ethoxyisoquinolin-8-ol hydrochloride] | 142 |
| CCOc1ccc2c(Cc3cc(OC)c(OCC)c(OC)c3)cncc2c1OC [Compound 46, 7-Ethoxy-4-(4-ethoxy-3,5-dimethoxybenzyl)-8-methoxyisoquinoline hydrochloride] | 688 |
| CCOc1ccc2c(C(=O)c3cc(OC)c(OCC)c(OC)c3)cncc2c1OC [Compound 47, (4-Ethoxy-3,5-dimethoxyphenyl)-(7-ethoxy-8-methoxyisoquinolin-4-yl)-methanone hydrochloride] | 129 |
| CCOc1ccc2c(C(=O)c3cc(OC)c(OC)c(OC)c3)cncc2c1N=[N+]=[N-] [Compound 108, 8-Azido-7-ethoxy-4-(3,4,5-trimethoxybenzoyl)isoquinoline] | 74.8 |
| CCOc1ccc2c(Cc3cc(OC)c(OCC4CCC4)c(OC)c3)cncc2c1O [Compound 34, 4-(4-(Cyclobutylmethoxy)-3,5-dimethoxybenzyl)-7-ethoxyisoquinolin-8-ol hydrochloride] | 65 |
| CCOc1c(OC)cc(Cc2cncc3c(OC)c(OC)ccc23)cc1OC [Compound 9, 4-(4-Ethoxy-3,5-dimethoxybenzyl)-7,8-dimethoxyisoquinoline hydrochloride] | 376 |
| CCOc1ccc2c(Cc3cc(OC)c(OC)c(OC)c3)cncc2c1N=[N+]=[N-] [Compound 107, 8-Azido-7-ethoxy-4-(3,4,5-trimethoxybenzyl)isoquinoline] | 575 |
| CCOc1ccc2c(Cc3cc(OC)c(OCC)c(OC)c3)cncc2c1 [Compound 13, 7-Ethoxy-4-(4-ethoxy-3,5-dimethoxybenzyl)isoquinoline hydrochloride] | 349 |
| CCOc1ccc2c(Cc3cc(OC)c(OCC(=O)OC)c(OC)c3)cncc2c1O [Compound 48, Methyl 2-(4-((7-ethoxy-8-hydroxyisoquinolin-4-yl)methyl)-2,6-dimethoxyphenoxy)acetate hydrochloride] | 812 |
| CCOc1ccc2c(C(=O)c3cc(OC)c(OC)c(OC)c3)cncc2c1NC(=O)[C@@H](N)Cc1ccccc1 [Compound 114, (S)-2-Amino-N-(7-ethoxy-4-(3,4,5-trimethoxybenzoyl)isoquinolin-8-yl)-3-phenylpropanamide dihydrochloride] | 92.6 |
| CCOc1ccc2c(Cc3cc(OC)c(OC)c(OC)c3)cncc2c1NC [Compound 92, 7-Ethoxy-N-methyl-4-(3,4,5-trimethoxybenzyl)isoquinolin-8-amine dihydrochloride] | 943 |
| CCOc1ccc2c(C(=O)c3cc(OC)c(OC)c(OC)c3)cncc2c1OC(=O)C(C)(C)C [Compound 109, 7-Ethoxy-4-(3,4,5-trimethoxybenzoyl)isoquinolin-8-yl pivalate] | 67.9 |
| CCOc1ccc2c(C(=O)c3cc(OC)c(OCC(C)C)c(OC)c3)cncc2c1O [Compound 79, (7-Ethoxy-8-hydroxyisoquinolin-4-yl)(4-isobutoxy-3,5-dimethoxyphenyl)methanone hydrochloride] | 12.1 |
| CCOc1ccc2c(Cc3cc(OC)c(OCC(CC)CC)c(OC)c3)cncc2c1O [Compound 37, 7-Ethoxy-4-(4-(2-ethylbutoxy)-3,5-dimethoxybenzyl)isoquinolin-8-ol hydrochloride] | 899 |
| CCOc1ccc2c(Cc3cc(I)c(OC)c(I)c3)cncc2c1O [Compound 70, 4-(3,5-Diiodo-4-methoxybenzyl)-7-ethoxyisoquinolin-8-ol hydrochloride] | 92.8 |
| CCOc1ccc2c(C(=O)c3cc(OC)c(OC)c(OC)c3)cncc2c1NS(=O)(=O)NC(=O)OC(C)(C)C [Compound 104, tert-Butyl N-(7-ethoxy-4-(3,4,5-trimethoxybenzoyl)isoquinolin-8-yl)sulfamoylcarbamate] | 38.8 |
| CCOc1ccc2c(Cc3cc(OC)c(OC)c(OC)c3Cl)cncc2c1O [Compound 110, 4-(2-Chloro-3,4,5-trimethoxybenzyl)-7-ethoxyisoquinolin-8-ol hydrochloride] | 68 |

Reference: patent publication US20130131018A1, “SUBSTITUTED ISOQUINOLINES AND THEIR USE AS TUBULIN POLYMERIZATION INHIBITORS” (Exonhit S.A., priority 2010, published 2013)
